# Laboratory results reported in US20020045780A1, “Biologically active spermidine analogues, pharmaceutical compositions and methods of treatment” (priority 1997, published 2002).
# “Also recorded” adds a separate entry of the source. Structures can show the parent of a compound that is named as a salt. Where two headings read alike, the source gives them in different places.
# Experiments:
# [1] = system: ornithine decarboxylase (ODC); assay: ODC activity in treated L1210 cells; assay type: cell-based, murine; conditions: L1210, 1 μM at 4 hours
# Protocol: (§1) On the basis of these studies, it was elected to evaluate the impact of the triamines on ODC and AdoMetDC at 4 and 6 hours, respectively.
# (§2) ODC and AdoMetDC activities were determined as ^14CO2 released from [^14C]-carboxyl-labeled L-ornithine [Seely et al, “Ornithine Decarboxylase (Mouse Kidney),” Methods Enzymol., Vol. 94, pages 158-161 (1983)] or S-adenosyl-L-methionine [Pegg et al, “S-Adenosylmethionine Decarboxylase (Rat Liver),” Methods Enzymol., Vol. 94, pages 234-239 (1983)], respectively. Included in each assay were untreated L1210 cells as controls, as well as cells treated with DEHSPM, a drug having a known reproducible effect on each enzyme, as positive controls.
# [2] = system: spermidine/spermine acetyltransferase (SSAT); assay: SSAT activity in treated L1210 cells; assay type: cell-based, murine; conditions: L1210, 10 μM at 48 hours (triamine analogues)
# Excerpt: Spermidine/spermine N^1-acetyltransferase activity was based on quantitation of [^14C]-N^1-acetylspermidine formed by acetylation of SPD with [^14C] acetyl coenzyme A according to the method of Libby et al [Biochem. Pharmacol., Vol. 38, supra]. Cells treated with DENSPM were positive controls.
# L1210 cells [3] = assay: Polyamine pool analysis in L1210 cells; assay type: cell-based, murine; conditions: for activity at 100 µM / activity at 500 µM: Mus musculus, L1210, 48 h, % of untreated control; for Analogue: intracellular amount
# Protocol: The following guidelines were adopted for studying the impact of the analogues on polyamine pools (Table 2). The measurements were made after a 48-hour exposure to the analogue, and two different concentrations of analogue were evaluated in each case.
# (§3) The cells were washed twice with cold RPMI-1640, and the pellet was treated with 0.6 N HClO4 (1 ml/10^7 cells). Polyamine contents of the perchloric acid extracts were quantitated by HPLC of the DANSYL derivatives [Bergeron et al, J. Med. Chem., Vol. 37, supra].
# [4] = system: S-adenosylmethionine decarboxylase (AdoMetDC); assay: AdoMetDC activity in treated L1210 cells; assay type: cell-based, murine; conditions: L1210, 1 μM at 6 hours
# Protocol: as §1, §2
# L1210 cells [5] = assay: Metabolic transformation of polyamine analogues by L1210 cells; assay type: in vitro ADME, murine; conditions: 48 hours
# Protocol: as §3
# L1210 cells [6] = assay: L1210 growth inhibition, IC50 determination; assay type: cell-based, murine; conditions: Mus musculus
# Protocol: Murine L1210 leukemia cells (ATCC CCL 219) were maintained in logarithmic growth in RPMI-1640 medium containing 10% fetal calf serum or a semi-synthetic equivalent, NuSerum, 2% HEPES-MOPS buffer and 1 mM aminoguanidine.
# [7] = system: polyamine transport apparatus; assay: Competitive uptake determination: inhibition of [3H]spermidine transport into L1210 cells; assay type: cell-based, murine; conditions: analogue inhibition of spermidine transport
# Protocol: The ability of the norspermidines, spermidines, homospermidines, 4,5- and 5,5-triamines to compete with radiolabeled SPD for uptake was evaluated (Table 1). The general trend is that the terminally alkylated triamines have higher Ki values than the unalkylated triamines and are thus less easily taken up by the cell. […] This is not completely true with the norspermidines and the 5,5 triamines. The relationship holds with methyl and ethyl but not for the propyl of the latter two systems. Finally, the number of methylenes separating the amines plays a role in determining polyamine uptake properties. In general the effectiveness with which the analogues compete for uptake is spermidines≈homospermidines>4,5 triamines>5,5 triamines>norspermidine.
# The polyamine derivatives were studied for their ability to compete with [^3H]-SPD for uptake into L1210 cells [Bergeron et al, J. Med. Chem., Vol. 37, supra]. Lineweaver-Burk plots indicated a simple competitive inhibition with respect to SPD.
# [8] = L1210, 48 h, L1210, 48 hour exposure, read-out: IC50 48 hour
# [9] = L1210, 96 h, L1210, 96 hour exposure, read-out: IC50 96 hour
Structure (SMILES),"Analogue (L1210 cells [3]; 100 μM, 48 hours) [nmol/10^6 cells]","Analogue (L1210 cells [3]; 500 μM, 48 hours) [nmol/10^6 cells]",IC50 (L1210 cells [6]; [8]) [µM],IC50 (L1210 cells [6]; [9]) [µM],Parent drug as % of total drug in the cell (L1210 cells [5]; 100 μM analogue) [%],Parent drug in L1210 cells (L1210 cells [5]; 100 μM analogue) [pmols/10^6],"ODC activity, percent of untreated control [1]","SSAT activity, percent of untreated control [2]","activity at 100 µM (L1210 cells [3]; 100 μM, read-out: Put) [%]","activity at 100 µM (L1210 cells [3]; 100 μM, read-out: Spd) [%]","activity at 100 µM (L1210 cells [3]; 100 μM, read-out: Spm) [%]","activity at 500 µM (L1210 cells [3]; 500 μM, read-out: Put) [%]","activity at 500 µM (L1210 cells [3]; 500 μM, read-out: Spd) [%]","activity at 500 µM (L1210 cells [3]; 500 μM, read-out: Spm) [%]","AdoMetDC activity, percent of untreated control [4]",Ki [7] [µM],also measured
"CCCNCCCCCNCCCCCNCCC [DP(5,5), 4,10,16-Triazanonadecane Trihydrochloride]",0.86,1.33,> 100,6,–,–,73% of untreated control,90% of untreated control,59,73,97,51,69,103,123% of untreated control,87,"PUT reduced by (L1210 cells [3]; 500 μM, 48 hours): 50%; SPD reduced by (L1210 cells [3]; 500 μM, 48 hours): 30%; Parent drug as % of total drug in the cell (L1210 cells [5]; 500 μM analogue): 100%; Parent drug in L1210 cells (L1210 cells [5]; 500 μM analogue): 1300 pmols/10^6; N-Monodealkylation (result in words) (L1210 cells [5]; 500 μM analogue, Trihydrochloride): no metabolic products were found; N-Monodealkylation (result in words) (L1210 cells [5]; 500 μM analogue, listed as DP-[6,5], Trihydrochloride): no N-depropylation"
"CCCNCCCCNCCCCNCCC [DPHSPD, N^1,N^9-Dipropylhomospermidine Trihydrochloride]",3.12,3.68,> 100,6,–,–,86% of untreated control,420% of untreated control,0,19,144,0,7,111,123% of untreated control,67,"Elaboration to tetraamine (result in words) (L1210 cells [5]; 500 μM analogue): elaboration of N-Monoalkyl [4,4]; Parent drug as % of total drug in the cell (L1210 cells [5]; 500 μM analogue): 87.7%; Parent drug in L1210 cells (L1210 cells [5]; 500 μM analogue): 3149 pmols/10^6"
"CCCNCCCNCCCNCCC [DPNSPD, N^1,N^7-Dipropylnorspermidine Trihydrochloride]",0.49,1.24,> 100,60,57.7,404,100% of untreated control,220% of untreated control,70,76,96,68,71,102,99% of untreated control,125,–
"CCNCCCNCCCCN [MESPD(N1), N^1-Ethylspermidine Trihydrochloride]",4.20,4.73,> 100,3 to 5,96.3,3946,10 (10) percent of untreated control,430% of untreated control,0,25,80,0,14,53,58% of untreated control,8.6,–
"CCCNCCCNCCCN [MPNSPD, N^1-Propylnorspermidine Trihydrochloride]",3.07,4.78,> 100,~100,94.3,3019,33% of untreated control,470% of untreated control,0,29,56,0,–,< 50,38% of untreated control,33,"Elaboration to tetraamine (result in words) (L1210 cells [5]; 100 μM analogue, listed as MP-[3,3], Trihydrochloride): no evidence of a tetraamine elaboration metabolite; also recorded: no elaboration of N-Monoalkyl [3,3]"

# The next lines start with results.
"Analogue (L1210 cells [3]; 100 μM, 48 hours) [nmol/10^6 cells]","Analogue (L1210 cells [3]; 500 μM, 48 hours) [nmol/10^6 cells]",IC50 (L1210 cells [6]; [8]) [µM],IC50 (L1210 cells [6]; [9]) [µM],Parent drug as % of total drug in the cell (L1210 cells [5]; 100 μM analogue) [%],Parent drug in L1210 cells (L1210 cells [5]; 100 μM analogue) [pmols/10^6],Structure (SMILES),"ODC activity, percent of untreated control [1]","SSAT activity, percent of untreated control [2]","activity at 100 µM (L1210 cells [3]; 100 μM, read-out: Put) [%]","activity at 100 µM (L1210 cells [3]; 100 μM, read-out: Spd) [%]","activity at 100 µM (L1210 cells [3]; 100 μM, read-out: Spm) [%]","activity at 500 µM (L1210 cells [3]; 500 μM, read-out: Put) [%]","activity at 500 µM (L1210 cells [3]; 500 μM, read-out: Spd) [%]","activity at 500 µM (L1210 cells [3]; 500 μM, read-out: Spm) [%]","AdoMetDC activity, percent of untreated control [4]",Ki [7] [µM],also measured
4.41,4.96,> 100,40,99.4,4825,"CCNCCCCNCCCN [MESPD(N8), N^8-Ethylspermidine Trihydrochloride]",17% of untreated control,400% of untreated control,0,26,84,0,15,61,54% of untreated control,7,"Elaboration to tetraamine (result in words) (L1210 cells [5]; 100 μM analogue, listed as N8-ME-[4,3], Trihydrochloride): no evidence of a tetraamine elaboration metabolite; also recorded: no elaboration of N8-Alkyl [4,3]"
3.97,4.95,> 100,20 to 35,93.9,4238,"CCCNCCCNCCCCN [MPSPD(N1), N^1-Propylspermidine Trihydrochloride]",18% of untreated control,1200% of untreated control,0,25,90,0,15,72,56% of untreated control,3,–
3.52,5.16,> 100,50 to 60,99.3,3549,"CCCNCCCCNCCCN [MPSPD(N8), N^8-Propylspermidine Trihydrochloride]",14% of untreated control,500% of untreated control,0,33,103,0,16,95,64% of untreated control,8.5,"Elaboration to tetraamine (result in words) (L1210 cells [5]; 100 μM analogue, listed as N8-MP-[4,3], Trihydrochloride): no evidence of a tetraamine elaboration metabolite; also recorded: no elaboration of N8-Alkyl [4,3]"
